# Results as given in US20250082733A1, “m6A mRNA MODIFICATION IN CANCER TREATMENT” (CITY OF HOPE, priority 2017, published 2025).
# What was measured:
# [1] = test system: HeLa cells; assay: Cell growth assay, control cells (HeLa); type: cell-based
# [2] = test system: PBT111; assay: Cell growth assay, MA2-treated GSCs (PBT111); type: cell-based, human; settings: 48 h
# Procedure: (§1) Treatment of GSCs with the FTO inhibitor MA2: GSCs were seeded at 5×10^4 cells per well in 48-well plates and cultured overnight. These cells were treated with MA2, a chemical inhibitor of FTO (Huang et al., 2015) at 20, 40, 60, 80 μM or vehicle control and cultured for 48 h. Cell number was counted using a hemocytometer. To determine the effect of MA2 on the level of m^6A RNA modification, GSCs were treated with 50 μM MA2 for 48 h. mRNAs were prepared and subjected to m^6A dot blot assay. To test the effect of MA2 in limiting dilution assay, GSCs were treated at 40 μM or vehicle control for two weeks.
# [3] = test system: PBT003 cells; assay: Intratumoral MA2 in PBT003-grafted NSG mice; type: in vivo; settings: vs vehicle control
# Procedure: Introcranial delivery of the FTO inhibitor MA2: PBT003 cells (2×10^5) transduced with luciferase expressing lentivirus were intracranially transplanted into the frontal lobe of NSG mice at the same coordinates as described above. One week after transplantation, tumors were detected by bioluminescence imaging and mice were treated with MA2 (5 μl of 600 μM MA2 in 1% DMSO in PBS per mouse) or vehicle control by intratumoral injection once a week for four weeks. Tumor growth was monitored by bioluminescence imaging every week for six weeks. The bioluminescence intensity was quantified.
# To test the effect of the FTO inhibitor on GSC-initiated tumorigenesis, PBT003-grafted mice were treated with the selective FTO inhibitor MA2 intratumorally once a week for four weeks (FIG. 11d). Tumor formation was monitored by bioluminescence xenogen imaging.
# [4] = test system: GSCs; assay: Limiting dilution assay of GSCs treated with MA2; type: cell-based, human; settings: 40 μM, two weeks, vs control cells
# Procedure: Limiting dilution assay: GSCs were transduced with relevant shRNA or METTL3-expressing lentivirus. The transduced GSCs were seeded at 1, 5, 10, 20, 50 and 100 cells per well into 96-well plates. The number of neurospheres in each well was counted two weeks after seeding cells. Extreme limiting dilution analysis was performed using software available at http://bioinf.wehi.edu.au/software/elda.
# as §1
# [5] = test system: PBT726; assay: Cell growth assay, MA2-treated GSCs (PBT726); type: cell-based, human; settings: 48 h
# Procedure: as §1
# [6] = test system: PBT707; assay: Cell growth assay, MA2-treated GSCs (PBT707); type: cell-based, human; settings: 48 h
# Procedure: as §1
# [7] = test system: normal neural stem cells (NSC) line NSC006; assay: Cell growth assay, control cells (NSC006); type: cell-based
# [8] = test system: brain astrocytes; assay: Cell growth assay, control cells (astrocytes); type: cell-based
# [9] = test system: mRNA m^6A level in GSCs; assay: m6A mRNA dot blot of GSCs treated with MA2; type: cell-based, human; settings: 50 μM MA2, 48 h, vs vehicle control
# Procedure: m^6A dot blot assay: GSCs were either maintained in sphere cultures or induced into differentiation for 1 week using 0.5% fetal bovine serum (Sigma) together with 1 μM all-trans retinoic acid (Sigma). Total RNAs were isolated from these GSCs using Trizol reagent (Ambion). GSCs were transduced with lentivirus expressing METTL3 or METTL14 shRNA or METTL3 cDNA. Seven days after transduction, total RNAs were extracted. mRNAs were prepared from total RNAs using Dynabeads® mRNA purification kit (Ambion, Catalog #61006). Indicated amount of mRNAs was used for dot blot analysis using an antibody specific for m^6A (1:1,000; Synaptic Systems; Catalog #202003). The intensity of dot blot signal was quantified by Image J.
# as §1
# [10] = test system: ADAM19, EPHA3, and KLF4 expression in PBT003 cells; assay: RT-PCR of oncogene expression in GSCs; type: cell-based, human
# Procedure: RT-PCR: Total RNAs isolated using Trizol reagent (Ambion) were subjected to reverse transcription (RT) performed using the Tetro cDNA synthesis Kit (BioLINE). RT-PCR reactions were performed using SYBR Green Master Mix (Thermo Scientific) on the Step One Plus Real-Time PCR instrument (Applied Biosystems). The primers for RT-PCR include METLL3 (F 5′-TCAGCATCGGAACCAGCAAAG-3′ (SEQ ID NO: 8); R 5′-TCCTGACTGACCTTCTTGCTC-3′ (SEQ ID NO: 9)), METLL14 (F 5′-GTTGGAACATGGATAGCCGC-3′ (SEQ ID NO: 10); R 5′-CAATGCTGTCGGCACTTTCA-3′ (SEQ ID NO: 11)), CD44 (F 5′-TGAGCATCGGATTTGAGACC-3′ (SEQ ID NO: 12); R 5′-TGTCATACTGGGAGGTGTTGG-3′ (SEQ ID NO: 13)), ADAM19 (F 5′-CCTGGATGGACAAGAGGAAG-3′ (SEQ ID NO: 14); R 5′-CTCAGCTTTGAGTGGATGCT-3′ (SEQ ID NO: 15)), EPAH3 (F 5′-GGGCTGGATCTCTTATCCATC-3′ (SEQ ID NO: 16); R 5′-GGACCCAGTTTGTTCTCAGC-3′ (SEQ ID NO: 17)), KLF4 (F 5′-AAGAGTTCCCATCTCAAGGC-3′ (SEQ ID NO: 18); R 5′-CCGTGTGTTTACGGTAGTGC-3′ (SEQ ID NO: 19)), and ACTIN (F 5′-CCGCAAAGACCTGTACGCCAAC-3′ (SEQ ID NO: 20); R 5′-CCAGGGCAGTGATCTCCTTCTG-3′ (SEQ ID NO: 21)). ACTIN was included as the reference gene for normalization. The ΔΔCt method was used for quantification analysis.
# [11] = target: FTO (Homo sapiens, UniProt Q9C0B1); settings: Huang et al., 2015; cited from earlier work
# [12] = test system: PBT003 cells; assay: Cell growth assay, MA2-treated GSCs (PBT003); type: cell-based, human; settings: PBT003, 60 μM and 80 μM, 48 h
# Procedure: as §1
# [13] = test system: GSCs; assay: Sphere formation assay of METTL3 or METTL14 KD GSCs with MA2; type: cell-based, human; settings: together with MA2
# Procedure: Sphere formation assay: The sphere formation assay was performed as previously described (Cui et al., 2016). Briefly, three days after viral transduction, the transduced cells were seeded at 1 cell per well in 96-well plates (for those associated with the limiting dilution assay) or 100 cells per well in 48-well plates and cultured for 2 weeks. The sphere number was counted under microscope. The sphere formation rate was defined as the percentage of sphere-forming cells out of the number of starting cells.
# Sequence of FTO (Q9C0B1 whole entry): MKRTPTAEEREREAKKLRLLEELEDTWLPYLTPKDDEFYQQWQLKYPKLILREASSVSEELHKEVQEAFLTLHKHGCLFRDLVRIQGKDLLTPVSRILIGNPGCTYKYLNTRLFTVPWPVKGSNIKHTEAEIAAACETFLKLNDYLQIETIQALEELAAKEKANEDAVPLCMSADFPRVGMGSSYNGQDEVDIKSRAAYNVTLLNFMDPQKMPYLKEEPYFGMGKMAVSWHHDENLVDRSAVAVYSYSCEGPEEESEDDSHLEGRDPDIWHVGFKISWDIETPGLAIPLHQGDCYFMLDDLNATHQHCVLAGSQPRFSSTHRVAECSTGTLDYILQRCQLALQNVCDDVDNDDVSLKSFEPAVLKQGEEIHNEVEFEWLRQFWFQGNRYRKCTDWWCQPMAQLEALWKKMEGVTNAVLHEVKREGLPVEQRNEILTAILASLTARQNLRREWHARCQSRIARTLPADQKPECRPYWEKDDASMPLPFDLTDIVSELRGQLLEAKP
structure (smiles),measurement,setting,value
"CCOC(=O)c1ccccc1Nc1c(Cl)ccc(C)c1Cl [MA2, ethyl ester form of meclofenamic acid (MA)]",cell growth,[1]; 80 μM,Mild effect
same,cell growth,[1]; up to 60 μM,no substantial effect
same,cell growth,"[2]; PBT111, 20 μM and 40 μM",inhibited the growth
same,cell growth,"[2]; PBT111, 60 μM and 80 μM",substantial inhibitory effect
same,tumor luciferase activity,[3]; 4 or 5 weeks after compound treatment,significant decrease
same,tumor size by bioluminescence xenogen imaging,"[3]; intratumoral, once a week for four weeks",much smaller tumors
same,survival,[3]; log-rank test,substantially prolonged survival
same,self-renewal of GSCs (stem cell frequency),[4],dramatically inhibited the self-renewal
same,cell growth,"[5]; PBT726, 40 μM",suppressed the growth
same,cell growth,"[5]; PBT726, 60 μM and 80 μM",substantial inhibitory effect
same,cell growth,"[6]; PBT707, 40 μM",suppressed the growth
same,cell growth,"[6]; PBT707, 60 μM and 80 μM",substantial inhibitory effect
same,cell growth,"[7]; NSC006, up to 60 μM",no substantial effect
same,cell growth,"[7]; NSCs, 80 μM",Mild effect
same,cell growth,"[8]; astrocytes, 80 μM",Mild effect
same,cell growth,"[8]; brain astrocytes, up to 60 μM",no substantial effect
same,mRNA m^6A level,[9],substantial increase
same,"expression of ADAM19, EPHA3, and KLF4",[10],decreased expression
same,FTO inhibition,[11],selective inhibitor of FTO
same,cell growth,[12],dramatic growth inhibitory effect
same,sphere formation rate,[13],reversed the effect of elevated sphere formation rate
